Results on 20 compounds are retold here after US20240059703A1 (AMGEN INC., priority 2021, published 2024).

Test [1] has as its system A549 (human lung carcinoma) cells. In words: Cell Viability Assay (CellTiter-Glo), A549. The test is classed as cell-based. The conditions noted are these: Homo sapiens, A549, 72 h. Put shortly: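 MIA PaCa-2 or A549 cells in RPMI 1640 with 10% FBS were seeded at 1.67E+04 cells/mL and incubated overnight. Serially diluted compound was then added for 72 h at 37° C, 5% CO2. Viability read by CellTiter-Glo luminescence, normalized to DMSO, with IC50 from a 4-parameter logistic fit.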
In general terms: ATP-based viability assays read luminescence as a measure of living cells.

The test system of test [2] is MIA PaCa-2 (human pancreatic carcinoma) cells. Nature of the test: Cell Viability Assay (CellTiter-Glo), MIA PaCa-2. The test is classed as cell-based. The conditions noted are these: Homo sapiens, MIA PaCa-2, 72 h. On the procedure:
Serially-diluted compound or DMSO was added to the cells, and plates were incubated at 37° C., 5% CO2 for 72 h. Cell viability was measured using a CellTiter-Glo® Luminescent Cell Viability Assay kit (Promega) according to the manufacturer's protocol. The luminescence signal of treated samples was normalized to DMSO control, and data were analyzed using a 4-parameter logistic model to calculate IC50 values.

The next test has as its target KRAS G12C (Homo sapiens (Human), UniProt P01116, C118A/G12C). Nature of the test: 2 h coupled exchange assay. To be noted: Avg 2 h Coupled exchange IC50, 2 h compound pre-incubation, SOS-mediated nucleotide exchange. The class given is biochemical. On the procedure:
The term “2 h coupled exchange assay” or “20 h coupled exchange assay” as used herein refers to the assay described in the Section entitled “BIOLOGICAL EVALUATION.”

Molecules are shown by their SMILES.

Sequence of KRAS G12C (P01116 other isoform, or with tags, fused parts or gaps G12C/C118A): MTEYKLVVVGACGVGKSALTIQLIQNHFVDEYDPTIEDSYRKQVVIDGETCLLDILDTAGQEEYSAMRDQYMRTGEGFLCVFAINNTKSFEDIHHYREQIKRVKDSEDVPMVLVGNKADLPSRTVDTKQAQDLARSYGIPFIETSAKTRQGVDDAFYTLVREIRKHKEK

As usually defined, the IC50 is the midpoint of a concentration-inhibition curve. Low readings indicate greater potency, high ones weaker potency. `C=CC(=O)N1CC2(CCN(c3nc4c(c(-c5cc(O)ccc5F)c3C#N)C[C@H]3C[C@@H]4C3(C)C)C2)C1` [Example 2-66, (1R,9R)-6-(2-fluoro-5-hydroxyphenyl)-10,10-dimethyl-4-(2-(2-propenoyl)-2,6-diazaspiro[3.4]octan-6-yl)-3-azatricyclo[7.1.1.0^2,7]undeca-2,4,6-triene-5-carbonitrile]: the IC50 in test [1] is more than 5000 nM; in test [2], 735 nM; against KRAS G12C, 89 nM.
On to `C=CC(=O)N1CC2(CCN(c3nc4c(c(-c5cc(O)ccc5C)c3C#N)C[C@H]3C[C@@H]4C3(C)C)C2)C1` [Example 2-67, (1R,9R)-6-(5-hydroxy-2-methylphenyl)-10,10-dimethyl-4-(2-(2-propenoyl)-2,6-diazaspiro[3.4]octan-6-yl)-3-azatricyclo[7.1.1.0^2,7]undeca-2,4,6-triene-5-carbonitrile], for which the IC50 is more than 5000 nM in test [1], 381 nM in test [2] and 38 nM against KRAS G12C.
Consider `C=CC(=O)N1CC2(CCN(c3nc4c(c(-c5c(F)cccc5CO)c3C#N)C[C@H]3C[C@@H]4C3(C)C)C2)C1` [Example 2-73, (1R,9R)-6-(2-fluoro-6-(hydroxymethyl)phenyl)-10,10-dimethyl-4-(2-(2-propenoyl)-2,6-diazaspiro[3.4]octan-6-yl)-3-azatricyclo[7.1.1.0^2,7]undeca-2,4,6-triene-5-carbonitrile], for which the figures for the concentration for half-maximal inhibition (IC50) (in test [1]; in test [2]; at KRAS G12C) were more than 5000 nM, 1940 nM and 228 nM, respectively.
For `C=CC(=O)N1CC2(CCN(c3nc4c(c(-c5cc(O)ccc5C)c3Cl)COC(C)(C)C4)C2)C1` [Example 2-79, 1-(6-(3-chloro-4-(5-hydroxy-2-methylphenyl)-7,7-dimethyl-7,8-dihydro-5H-pyrano[4,3-b]pyridin-2-yl)-2,6-diazaspiro[3.4]octan-2-yl)-2-propen-1-one] the same measures were more than 5000 nM, 159 nM and 71 nM.
For the compound `C=CC(=O)N1CC2(CCN(c3nc4c(c(-c5c(C)ccc6[nH]ncc56)c3Cl)COC(C)(C)C4)C2)C1` [Example 2-83, 1-(6-(3-chloro-7,7-dimethyl-4-(5-methyl-1H-indazol-4-yl)-7,8-dihydro-5H-pyrano[4,3-b]pyridin-2-yl)-2,6-diazaspiro[3.4]octan-2-yl)-2-propen-1-one], the IC50 in test [1] was determined as 12200 nM; in test [2], 17 nM; against KRAS G12C it was 33 nM.
In the case of `C=CC(=O)N1CC2(CCN(c3cc4c(c(-c5c(C)ccc6[nH]ncc56)c3C#N)CCCC4)C2)C1` [Example 2-93, 1-(5-methyl-1H-indazol-4-yl)-3-(2-(2-propenoyl)-2,6-diazaspiro[3.4]octan-6-yl)-5,6,7,8-tetrahydro-2-naphthalenecarbonitrile], the IC50 was determined as 2040 nM in test [1], 70 nM in test [2] and 19 nM at KRAS G12C.
Turning to `C=CC(=O)N1CC2(CCN(c3cc4c(c(-c5c(C)ccc6[nH]ncc56)c3C#N)COCC4)C2)C1` [Example 2-95, 8-(5-methyl-1H-indazol-4-yl)-6-(2-(2-propenoyl)-2,6-diazaspiro[3.4]octan-6-yl)-3,4-dihydro-1H-2-benzopyran-7-carbonitrile], the results for the IC50 (in test [1]; in test [2]; against KRAS G12C) were more than 5000 nM, 792 nM and 88 nM, respectively.
As to `C=CC(=O)N1CC2(CCN(c3cc4c(c(-c5c(C)ccc6cnn(C)c56)c3C#N)COCC4)C2)C1` [Example 2-96, 8-(1,6-dimethyl-1H-indazol-7-yl)-6-(2-(2-propenoyl)-2,6-diazaspiro[3,4]octan-6-yl)-3,4-dihydro-1H-2-benzopyran-7-carbonitrile], the values for the IC50 (in test [1]; in test [2]; against KRAS G12C) were more than 5000 nM, 246 nM and 232 nM, respectively.
In the case of `C=CC(=O)N1CC2(CCN(c3cc4c(c(-c5c(C)ccc6cnn(C)c56)c3C#N)CCC(C)(C)C4)C2)C1` [Example 2-97, 1-(1,6-dimethyl-1H-indazol-7-yl)-6,6-dimethyl-3-(2-(2-propenoyl)-2,6-diazaspiro[3.4]octan-6-yl)-5,6,7,8-tetrahydro-2-naphthalenecarbonitrile], the values for the IC50 (in test [1]; in test [2]; against KRAS G12C) were more than 5000 nM, 207 nM and 82 nM, respectively.
For the compound `C=CC(=O)N1CC2(CCN(c3cc4c(c(-c5cc(O)cc6ccccc56)c3C#N)CCC(C)(C)C4)C2)C1` [Example 2-98, 3′-hydroxy-6,6-dimethyl-3-(2-(2-propenoyl)-2,6-diazaspiro[3,4]octan-6-yl)-5,6,7,8-tetrahydro[1,1′-binaphthalene]-2-carbonitrile], the IC50 in test [1] was more than 5000 nM; in test [2], 110 nM; against KRAS G12C, 55 nM.
Turning to `C=CC(=O)N1CC2(CCN(c3cc4c(c(-c5c(C)ccc6cnn(C)c56)c3C#N)OCCC4)C2)C1` [Example 2-101, 8-(1,6-dimethyl-1H-indazol-7-yl)-6-(2-(2-propenoyl)-2,6-diazaspiro[3.4]octan-6-yl)-3,4-dihydro-2H-chromene-7-carbonitrile], the IC50 is 13400 nM in test [1], 37 nM in test [2] and 28 nM at KRAS G12C.
Regarding `C=CC(=O)N1CC2(CCN(c3cc4c(c(-c5c(C(F)(F)F)ccc6[nH]ncc56)c3Cl)OCCC4)C2)C1` [Example 2-103, 1-(6-(7-chloro-8-(5-(trifluoromethyl)-1H-indazol-4-yl)-3,4-dihydro-2H-chromen-6-yl)-2,6-diazaspiro[3.4]octan-2-yl)-2-propen-1-one], the IC50 was more than 5000 nM in test [1], 118 nM in test [2] and 294 nM against KRAS G12C.
Take `C=CC(=O)N1CC2(CCN(c3cc4c(c(-c5c(C)c(Cl)cc6cnn(C)c56)c3C#N)OCCC4)C2)C1` [Example 2-104, 8-(5-chloro-1,6-dimethyl-1H-indazol-7-yl)-6-(2-(2-propenoyl)-2,6-diazaspiro[3.4]octan-6-yl)-3,4-dihydro-2H-chromene-7-carbonitrile]: the 50% inhibitory concentration (IC50) in test [1] is more than 5000 nM; in test [2] it was 3 nM; against KRAS G12C it was 18 nM.
As for `C=CC(=O)N1CC2(C1)CN(c1nc3c(c(-c4c(C)ccc5[nH]ncc45)c1C#N)CCC(C)(C)C3)CC2(F)F` [Example 2-105, 2-(8,8-difluoro-2-(2-propenoyl)-2,6-diazaspiro[3.4]octan-6-yl)-7,7-dimethyl-4-(5-methyl-1H-indazol-4-yl)-5,6,7,8-tetrahydro-3-quinolinecarbonitrile], the IC50 in test [1] came to 3420 nM; in test [2], 425 nM; at KRAS G12C, 91 nM.
With `C=CC(=O)N1CC2(CCN(c3cc4c(c(-c5c(C)c(Cl)cc6cnn(C)c56)c3C#N)OCCC4)[C@H]2C)C1` [Example 2-107, 8-(5-chloro-1,6-dimethyl-1H-indazol-7-yl)-6-((5S)-5-methyl-2-(2-propenoyl)-2,6-diazaspiro[3.4]octan-6-yl)-3,4-dihydro-2H-chromene-7-carbonitrile], the IC50 is more than 5000 nM in test [1], 7 nM in test [2] and 17 nM against KRAS G12C.
For `C=CC(=O)N1CC2(CCN(c3cc4c(c(-c5c(C)c(Cl)cc6cnn(C)c56)c3Cl)OCCC4)C2)C1` [Example 2-110, 1-(6-(7-chloro-8-(5-chloro-1,6-dimethyl-1H-indazol-7-yl)-3,4-dihydro-2H-chromen-6-yl)-2,6-diazaspiro[3.4]octan-2-yl)-2-propen-1-one], the IC50 in test [1] was more than 5000 nM; in test [2] it was 20 nM; against KRAS G12C, 53 nM.
Take `C=CC(=O)N1CC2(CCN(c3nc(-c4c(C)ccc5[nH]ncc45)c4c(n3)N(C)CC4)C2)C1` [Example 5, 1-(6-(7-methyl-4-(5-methyl-1H-indazol-4-yl)-6,7-dihydro-5H-pyrrolo[2,3-d]pyrimidin-2-yl)-2,6-diazaspiro[3.4]octan-2-yl)prop-2-en-1-one]: the IC50 in test [1] was more than 25000 nM; in test [2] it was 12900 nM; on KRAS G12C, 181000 nM.
Taken in the same sequence, the figures for `C=CC(=O)N1CC2(CCN(c3cc4c(ncn4C)c(-c4c(C)ccc5[nH]ncc45)c3C#N)C2)C1` [Example 7, 1-methyl-4-(5-methyl-1H-indazol-4-yl)-6-(2-(2-propenoyl)-2,6-diazaspiro[3.4]octan-6-yl)-1H-benzimidazole-5-carbonitrile] were more than 5000 nM, 3420 nM and 879 nM.
As to `C=CC(=O)N1CC2(CCN(c3nc4c(c(-c5cc(O)cc(C)c5Cl)c3C)COC(C)(C)C4)C2)C1` [Example 12-1, 1-(6-(4-(2-chloro-5-hydroxy-3-methylphenyl)-3,7,7-trimethyl-7,8-dihydro-5H-pyrano[4,3-b]pyridin-2-yl)-2,6-diazaspiro[3.4]octan-2-yl)prop-2-en-1-one], the IC50 in test [1] is more than 5000 nM; in test [2] it was 88 nM; against KRAS G12C, 94 nM.
Taken in the same sequence, the figures for `C=CC(=O)N1CC2(CCN(c3nc4c(c(-c5cc(O)cc(Cl)c5C)c3C)COC(C)(C)C4)C2)C1` [Example 12-2, 1-(6-(4-(3-chloro-5-hydroxy-2-methylphenyl)-3,7,7-trimethyl-7,8-dihydro-5H-pyrano[4,3-b]pyridin-2-yl)-2,6-diazaspiro[3.4]octan-2-yl)prop-2-en-1-one] were more than 5000 nM, 38 nM and 41 nM.
